This assay concerns P388 leukemia ip, CD2F1 mice, survival T/C. Kind of assay: NCI In Vivo Anticancer Drug Screen. Data for tumor model P388 Leukemia (intraperitoneal) in CD2F1 (CDF1) mice. As to conditions: endpoint: median survival time, higher = longer survival. Summed up: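 Mice carrying the transplanted tumor received test compound or vehicle. Survival was recorded in each group, and the value is the treated-group measurement divided by that of the vehicle-treated control group.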

[1] abbreviates: dose: 100.0 mg/kg/injection, schedule: Q01DX001 (ip), vehicle: saline with Tween-80.
[2] abbreviates: dose: 200.0 mg/kg/injection, schedule: Q01DX001 (ip), vehicle: saline with Tween-80.
Where [3] appears, read: dose: 400.0 mg/kg/injection, schedule: Q01DX001 (ip), vehicle: saline with Tween-80.
The mark [4] stands for this setting: dose: 60.0 mg/kg/injection, schedule: Q01DX005 (ip), vehicle: saline with Tween-80.
Setting [5] is: dose: 120.0 mg/kg/injection, schedule: Q01DX005 (ip), vehicle: saline with Tween-80.
Setting [6] is: dose: 240.0 mg/kg/injection, schedule: Q01DX005 (ip), vehicle: saline with Tween-80.
[7] abbreviates: dose: 50.0 mg/kg/injection, schedule: Q01DX009 (ip), vehicle: saline with Tween-80.
Where [8] appears, read: dose: 50.0 mg/kg/injection, schedule: Q01DX005 (ip), vehicle: Klucel (hydroxypropylcellulose) (HPC).
The mark [9] stands for this setting: dose: 100.0 mg/kg/injection, schedule: Q04DX003 (ip), vehicle: Klucel (hydroxypropylcellulose) (HPC).
[10] abbreviates: dose: 200.0 mg/kg/injection, schedule: Q04DX003 (ip), vehicle: Klucel (hydroxypropylcellulose) (HPC).
Where [11] appears, read: dose: 400.0 mg/kg/injection, schedule: Q04DX003 (ip), vehicle: Klucel (hydroxypropylcellulose) (HPC).
Setting [12] is: dose: 50.0 mg/kg/injection, schedule: Q01DX005 (ip), vehicle: saline with Tween-80.
The mark [13] stands for this setting: dose: 100.0 mg/kg/injection, schedule: Q01DX005 (ip), vehicle: saline with Tween-80.
Where [14] appears, read: dose: 200.0 mg/kg/injection, schedule: Q01DX005 (ip), vehicle: saline with Tween-80.
The mark [15] stands for this setting: dose: 50.0 mg/kg/injection, schedule: Q01DX009 (ip), vehicle: saline.
Setting [16] is: dose: 100.0 mg/kg/injection, schedule: Q01DX009 (ip), vehicle: saline.
[17] abbreviates: dose: 200.0 mg/kg/injection, schedule: Q01DX009 (ip), vehicle: saline.
[18] abbreviates: dose: 25.0 mg/kg/injection, schedule: Q01DX009 (ip), vehicle: saline with Tween-80.
Setting [19] is: dose: 100.0 mg/kg/injection, schedule: Q04DX003 (ip), vehicle: saline with Tween-80.

Molecules are shown by their SMILES. Where “and” joins values, the source holds several entries; their conditions need not be identical. Equal values may be shown once. Inconclusive results and toxic doses are left out.

With `Cc1cccc(CSCc2c(CSCc3cccc(C)c3)c(CSCc3cccc(C)c3)c(CSCc3cccc(C)c3)c(CSCc3cccc(C)c3)c2CSCc2cccc(C)c2)c1`, the T/C was 114 % of control under setting [1], 105 % of control under setting [2] and 101 % of control under setting [3].

`Cn1c(=S)[nH]n(CCOc2ccccc2)c1=S`: the T/C under setting [4] is 118 % of control; the T/C under setting [5] is 98 % of control and 99 % of control and 108 % of control; the T/C under setting [6] is 109 % of control and 123 % of control and 97 % of control; the T/C (dose: 480.0 mg/kg/injection, schedule: Q01DX005 (ip), vehicle: saline with Tween-80) is 105 % of control and 96 % of control.

`COC(=O)/C=C/CCO`: the T/C runs as follows: under setting [7], 111 % of control; (dose: 100.0 mg/kg/injection, schedule: Q01DX009 (ip), vehicle: saline with Tween-80) 95 % of control; (dose: 200.0 mg/kg/injection, schedule: Q01DX009 (ip), vehicle: saline with Tween-80) 108 % of control.

`O=C1/C(=N/O)Cc2ccccc21`: the T/C (dose: 12.5 mg/kg/injection, schedule: Q04DX003 (ip), vehicle: saline with Tween-80) is 100 % of control; the T/C (dose: 25.0 mg/kg/injection, schedule: Q04DX003 (ip), vehicle: saline with Tween-80) was 100 % of control; the T/C (dose: 50.0 mg/kg/injection, schedule: Q04DX003 (ip), vehicle: saline with Tween-80) is 100 % of control.

Consider `CC(/C=C/c1ccccc1)=N\O`, for which the T/C by setting is: under setting [8], 97 % of control; (dose: 100.0 mg/kg/injection, schedule: Q01DX005 (ip), vehicle: Klucel (hydroxypropylcellulose) (HPC)) 99 % of control; (dose: 200.0 mg/kg/injection, schedule: Q01DX005 (ip), vehicle: Klucel (hydroxypropylcellulose) (HPC)) 97 % of control.

For `FC(F)(F)c1ccc2c(N/N=C/c3ccc(N(CCCl)CCCl)cc3)ccnc2c1`, the T/C by setting is: under setting [9], 111 % of control; under setting [10], 99 % of control; under setting [11], 90 % of control.

Take `CSc1n[nH]c(C2CCC(=O)N2Cc2ccccc2)n1` (centres undefined): the T/C is 103 % of control under setting [12], 101 % of control under setting [13] and 100 % of control under setting [14].

On to `C=CCN1CCN(c2ccncc2S(=O)(=O)N2CCN(C)CC2)CC1`, for which the T/C is 105 % of control under setting [15], 99 % of control under setting [16] and 97 % of control under setting [17].

Turning to `O=C(O)c1ccc(O)c(O)c1`, the T/C is 104 % of control and 111 % of control under setting [15]; 100 % of control and 103 % of control under setting [16]; 103 % of control and 98 % of control under setting [17]; 103 % of control and 118 % of control (dose: 400.0 mg/kg/injection, schedule: Q01DX009 (ip), vehicle: saline); 100 % of control (dose: 600.0 mg/kg/injection, schedule: Q01DX009 (ip), vehicle: saline).

For `COc1cc(OC)c(Br)cc1C`, the T/C reads like this: (dose: 12.5 mg/kg/injection, schedule: Q01DX009 (ip), vehicle: saline with Tween-80) 100 % of control; under setting [18], 91 % of control; under setting [7], 91 % of control; under setting [19], 104 % of control; (dose: 200.0 mg/kg/injection, schedule: Q04DX003 (ip), vehicle: saline with Tween-80) 104 % of control; (dose: 400.0 mg/kg/injection, schedule: Q04DX003 (ip), vehicle: saline with Tween-80) 104 % of control.

For `CCc1ccc2c(-c3ccccc3)c3ccccc3c(-c3ccccc3)c2c1`, the T/C was 96 % of control (dose: 12.5 mg/kg/injection, schedule: Q01DX005 (ip), vehicle: saline with Tween-80); 99 % of control (dose: 25.0 mg/kg/injection, schedule: Q01DX005 (ip), vehicle: saline with Tween-80); 88 % of control and 90 % of control under setting [12]; 90 % of control under setting [13]; 88 % of control under setting [14].

As to `COC1=CC(=O)C(C(C)=O)=C(C2(C)C(=O)CCCC2=O)C1=O`, the T/C was 106 % of control under setting [12], 89 % of control under setting [13] and 104 % of control under setting [14].

As for `CSc1cnn(-c2ccccc2)[n+]1[O-]`, the T/C runs as follows: under setting [12], 98 % of control; under setting [13], 110 % of control; under setting [14], 94 % of control.

Turning to `CN(C)CCSC1=Nc2ccc(Cl)cc2C(c2ccccc2Cl)=NC1`, the T/C is, setting by setting: under setting [4], 98 % of control; (dose: 60.0 mg/kg/injection, schedule: Q01DX005 (ip), vehicle: saline) 99 % of control; under setting [5], 101 % of control; (dose: 120.0 mg/kg/injection, schedule: Q01DX005 (ip), vehicle: saline) 104 % of control; under setting [6], 105 % of control; (dose: 240.0 mg/kg/injection, schedule: Q01DX005 (ip), vehicle: saline) 98 % of control.

Consider `COC(=O)/C(=C/C=C/c1ccccc1)N=[N+]=[N-]`, for which the T/C is, setting by setting: under setting [1], 114 % of control; under setting [2], 105 % of control; under setting [3], 100 % of control.

`COc1ccc(/C=C/CC2Cc3cc4c(cc3OC2c2ccc(OC)cc2)OCO4)cc1` (centres undefined): the T/C is 93 % of control (dose: 3.75 mg/kg/injection, schedule: Q01DX005 (ip), vehicle: saline with Tween-80) and 90 % of control (dose: 7.5 mg/kg/injection, schedule: Q01DX005 (ip), vehicle: saline with Tween-80).

Turning to `O=C1CC(O)(c2ccccc2)CS1` (centres undefined), the T/C by setting is: under setting [9], 107 % of control; under setting [10], 105 % of control; under setting [11], 100 % of control.

Take `CCn1c(S)c(N=NC(=S)c2ccc3ccccc3n2)c2ccccc21`: the T/C was 98 % of control (dose: 50.0 mg/kg/injection, schedule: Q04DX003 (ip), vehicle: saline); 96 % of control (dose: 100.0 mg/kg/injection, schedule: Q04DX003 (ip), vehicle: saline); 103 % of control (dose: 200.0 mg/kg/injection, schedule: Q04DX003 (ip), vehicle: saline).

`Cn1c(=O)oc2ccc(Br)cc21`: the T/C reads like this: (dose: 100.0 mg/kg/injection, schedule: Q04DX002 (ip), vehicle: Klucel (hydroxypropylcellulose) (HPC)) 104 % of control; (dose: 200.0 mg/kg/injection, schedule: Q04DX002 (ip), vehicle: Klucel (hydroxypropylcellulose) (HPC)) 104 % of control; (dose: 400.0 mg/kg/injection, schedule: Q04DX002 (ip), vehicle: Klucel (hydroxypropylcellulose) (HPC)) 100 % of control.

Consider `C=C1C(=O)O[C@@H]2C3=C(C)C(=O)C=C[C@]3(C)CC[C@@H]12`, for which the T/C (dose: 100.0 mg/kg/injection, schedule: Q04DX002 (ip), vehicle: saline with Tween-80) is 109 % of control.

For the compound `Cc1cc(N/N=C/c2ccnc3ccccc23)c2cc3c(cc2n1)OCO3`, the T/C (dose: 12.5 mg/kg/injection, schedule: Q01DX005 (ip), vehicle: Klucel (hydroxypropylcellulose) (HPC)) was 90 % of control and 93 % of control; the T/C (dose: 25.0 mg/kg/injection, schedule: Q01DX005 (ip), vehicle: Klucel (hydroxypropylcellulose) (HPC)) is 100 % of control and 105 % of control; the T/C under setting [8] is 103 % of control and 108 % of control.

For `CCNC(=O)C#CC(=O)NCC`, the T/C by setting is: (dose: 50.0 mg/kg/injection, schedule: Q01DX009 (ip), vehicle: Klucel (hydroxypropylcellulose) (HPC)) 92 % of control; (dose: 100.0 mg/kg/injection, schedule: Q01DX009 (ip), vehicle: Klucel (hydroxypropylcellulose) (HPC)) 92 % of control; (dose: 200.0 mg/kg/injection, schedule: Q01DX009 (ip), vehicle: Klucel (hydroxypropylcellulose) (HPC)) 95 % of control.

Turning to `COc1cc([C@@H]2c3cc4c(cc3[C@H](OC(C)=O)[C@H]3COC(=O)[C@@H]23)OCO4)cc(OC)c1OC`, the T/C is 118 % of control under setting [18]; 88 % of control (dose: 29.3 mg/kg/injection, schedule: Q04DX003 (ip), vehicle: saline with Tween-80); 150 % of control under setting [7]; 100 % of control (dose: 66.0 mg/kg/injection, schedule: Q04DX003 (ip), vehicle: saline with Tween-80); 115 % of control under setting [19].
